Measured values from patent US10688099B2, “Methods for modulating the amount of RNA transcripts” (PTC Therapeutics, Inc., priority 2013, dated 2020).

System: RNA isoforms in PNN 1-46 SMA type I patient-derived fibroblasts
Assay: RNA Abundance Modulation (RNA isoform abundance, iFPM, HiSeq RNA sequencing)
Format: cell-based, human
Settings: 3 μM
Method: Cells from a cell line of interest are cultured in conditions sufficient to yield the number of cells capable of generating enough RNA for subsequent sequencing steps. Cells from the tested cell line are contacted with a compound described herein.
To culture said cells, they are seeded, at appropriate concentrations in a volume of media in a cell culture container and incubated for 4, 5, 6, 7, 8, 9, 10, or more hours. A concentrated solution of compound in a vehicle (e.g., DMSO) is then added in sufficient volume to result in the intended final concentration of the compound, for example 100 nM, 500 nM, 1 μM, 5 μM, 10 μM, 15 μM, 20 μM, or more. The cells may also be treated with vehicle alone, as a control. A number of replicates of each concentration or control may be made (e.g., 2 replicates). The cells are then incubated at a constant temperature appropriate for cell culture of the particular cell line (e.g., 37° C.) for 6, 12, 18, 24, 48, or more hours. After incubation, the growth medium is removed and the cells are washed with the appropriate buffer (e.g., PBS). Cells are then removed from adherence to the cell culture container by treatment with a solution containing trypsin, and the trypsin subsequently quenched with the appropriate volume of buffer (e.g., DMEM-FBS). The cells are then pelleted with gentle centrifugation (e.g., ≤90×g centrifugal force) and resuspended in a buffer to lyse the cells for extraction of RNA. The cell lysates may then be frozen (e.g., at −80° C.) or, alternately, may immediately be used in a procedure to purify the RNA (e.g. by use of the RNEASY PLUS® minikit). The RNA from cell lysates is eluted in the appropriate volume of buffer (e.g., RNEASE-FREE H2O®). The resulting purified RNA may then be sequenced (e.g., using RNASeq) or analyzed using a human exon array (e.g., by GENECHIP® human exon array) to determine changes in the RNA levels in those cells treated with compound compared to those cells treated only with DMSO. The purified RNA may also be quantified by other methods known in the art.
Using the RNA data obtained from sequencing, exon array, or other methods, a statistical analysis can reveal changes in the RNA levels of compound-treated compared with control. For example, t-test p-values may be calculated for the data obtained through sequencing and exon array methods in order to compare compound-treated cells to those treated with the DMSO control. […] Analysis of the sequencing and exon array data may then also yield predictions about the cause of the aberrant amount of an RNA transcript in the cells (e.g., perturbation of RNA splicing, RNA transcription, or RNA stability). These predictions may be further confirmed by methods known in the art. For example, RT-PCR and RT-qPCR may be used to confirm the change in amount of RNA transcripts for one or more particular transcripts of interest.
Following the methods described above in Example 1, PNN 1-46 SMA type I patient-derived fibroblasts were treated with 300 nM or 3 μM Compounds 774 and 808 in 0.5% DMSO.
700,000 cells were seeded in 10 mL of medium (DMEM plus 10% FBS) in a T-75 flask. Cells were allowed to attach for at least 4 hrs, after which 50 μL of a 200× compound solution (100% DMSO) was added to each well, and the plate was incubated at 37° C. for 24 hrs.
At the end of the incubation period, the supernatant was removed and the cells where washed with PBS. TrypLE (Invitrogen) express solution was added (e.g. 1.5 mL per one T75 flask). The flasks were incubated for 3 to 5 min at 37° C. The trypsin was then quenched, e.g., by adding 10 mL DMEM-FBS.
Next, the cells were pelleted using gentle centrifugation without exceeding 90×g centrifugal force. The supernatant was removed and the cell pellet was re-suspended in 600 μL RLT buffer (the RLT buffer was supplemented with beta-mercaptoethanol according to the RNeasy protocol manual) by pipetting up and down until the pellet was completely dissolved […]

SMILES: CCc1nc(C)cn2nc(-c3cc(=O)n4cc(C5CCN(C)CC5)cc(C)c4n3)cc12 [Compound 774]
- L2FC (x + 1) (TRAPPC12 AK094181): 0.288
- L2abs (Cpd-DMSO) (TRAPPC12 AK094181): 2.20
- abs (Cpd-DMSO) (TRAPPC12 AK094181): 5 iFPM
- amp FC (x + 1) (TRAPPC12 AK094181): 1.22
- ave Cpd (TRAPPC12 AK094181): 24 iFPM
- FC (x + 1) (TRAPPC12 AK098327): 0.0066
- L2FC (x + 1) (TRAPPC12 AK098327): −7.244
- L2abs (Cpd-DMSO) (TRAPPC12 AK098327): 7.23
- abs (Cpd-DMSO) (TRAPPC12 AK098327): 151 iFPM
- amp FC (x + 1) (TRAPPC12 AK098327): 151.58
- ave Cpd (TRAPPC12 AK098327): 0 iFPM
- FC (x + 1) (TRAPPC12 NM_016030): 1.2575
- L2FC (x + 1) (TRAPPC12 NM_016030): 0.331
- L2abs (Cpd-DMSO) (TRAPPC12 NM_016030): 7.32
- abs (Cpd-DMSO) (TRAPPC12 NM_016030): 160 iFPM
- amp FC (x + 1) (TRAPPC12 NM_016030): 1.26
- ave Cpd (TRAPPC12 NM_016030): 781 iFPM
- FC (x + 1) (TRIM2 BC025417): 0.7534
- L2FC (x + 1) (TRIM2 BC025417): −0.408
- L2abs (Cpd-DMSO) (TRIM2 BC025417): 0.61
- abs (Cpd-DMSO) (TRIM2 BC025417): 2 iFPM
- amp FC (x + 1) (TRIM2 BC025417): 1.33
- ave Cpd (TRIM2 BC025417): 4 iFPM
- FC (x + 1) (TRIM2 NM_015271): 1.1211
- L2FC (x + 1) (TRIM2 NM_015271): 0.165
- L2abs (Cpd-DMSO) (TRIM2 NM_015271): 7.65
- abs (Cpd-DMSO) (TRIM2 NM_015271): 201 iFPM
- amp FC (x + 1) (TRIM2 NM_015271): 1.12
- ave Cpd (TRIM2 NM_015271): 1858 iFPM
- FC (x + 1) (TRIM2 NM_001130067): 0.0184
- L2FC (x + 1) (TRIM2 NM_001130067): −5.763
- L2abs (Cpd-DMSO) (TRIM2 NM_001130067): 5.74
- abs (Cpd-DMSO) (TRIM2 NM_001130067): 53 iFPM
- amp FC (x + 1) (TRIM2 NM_001130067): 54.29
- ave Cpd (TRIM2 NM_001130067): 0 iFPM
- FC (x + 1) (TRIM65 NM_173547): 1.6613
- L2FC (x + 1) (TRIM65 NM_173547): 0.732
- L2abs (Cpd-DMSO) (TRIM65 NM_173547): 7.49
- abs (Cpd-DMSO) (TRIM65 NM_173547): 179 iFPM
- amp FC (x + 1) (TRIM65 NM_173547): 1.66
- ave Cpd (TRIM65 NM_173547): 449 iFPM
- FC (x + 1) (TRIM65 NM_001256124): 0.0055
- L2FC (x + 1) (TRIM65 NM_001256124): −7.514
- L2abs (Cpd-DMSO) (TRIM65 NM_001256124): 7.51
- abs (Cpd-DMSO) (TRIM65 NM_001256124): 182 iFPM
- amp FC (x + 1) (TRIM65 NM_001256124): 182.75
- ave Cpd (TRIM65 NM_001256124): 0 iFPM
- FC (x + 1) (TSPAN2 GU971730): 0.3567
- L2FC (x + 1) (TSPAN2 GU971730): −1.487
- L2abs (Cpd-DMSO) (TSPAN2 GU971730): 4.19
- abs (Cpd-DMSO) (TSPAN2 GU971730): 18 iFPM
- amp FC (x + 1) (TSPAN2 GU971730): 2.80
- ave Cpd (TSPAN2 GU971730): 9 iFPM
- FC (x + 1) (TSPAN2 NM_005725): 0.3229
- L2FC (x + 1) (TSPAN2 NM_005725): −1.631
- L2abs (Cpd-DMSO) (TSPAN2 NM_005725): 8.17
- abs (Cpd-DMSO) (TSPAN2 NM_005725): 288 iFPM
- amp FC (x + 1) (TSPAN2 NM_005725): 3.10
- ave Cpd (TSPAN2 NM_005725): 136 iFPM
- FC (x + 1) (U2SURP AK057679): 1.1346
- L2FC (x + 1) (U2SURP AK057679): 0.182
- L2abs (Cpd-DMSO) (U2SURP AK057679): 4.73
- abs (Cpd-DMSO) (U2SURP AK057679): 27 iFPM
- amp FC (x + 1) (U2SURP AK057679): 1.13
- ave Cpd (U2SURP AK057679): 223 iFPM
- FC (x + 1) (U2SURP AK296440): 0.9747
- L2FC (x + 1) (U2SURP AK296440): −0.037
- L2abs (Cpd-DMSO) (U2SURP AK296440): 2.77
- abs (Cpd-DMSO) (U2SURP AK296440): 7 iFPM
- amp FC (x + 1) (U2SURP AK296440): 1.03
- ave Cpd (U2SURP AK296440): 261 iFPM
- FC (x + 1) (U2SURP BC006474): 0.9155
- L2FC (x + 1) (U2SURP BC006474): −0.127
- L2abs (Cpd-DMSO) (U2SURP BC006474): 6.85
- abs (Cpd-DMSO) (U2SURP BC006474): 115 iFPM
